Results as given in PMC11062922 (Nature Chemical Biology, 2023).

Experiments:
ABL2 = target: T1, ABL2 (Homo sapiens, UniProt P42684); assay: Kinobeads two-dose competition binding: ABL2; details: sheet CATDS matrix 2; Gene Name ABL2
T1 construct: endogenous in cells

ACAD11 = target: T2, ACAD11 (Homo sapiens, UniProt Q709F0); assay: Kinobeads two-dose competition binding: ACAD11; details: sheet CATDS matrix 2; Gene Name ACAD11
T2 construct: endogenous in cells
T2 sequence (Q709F0 1-780): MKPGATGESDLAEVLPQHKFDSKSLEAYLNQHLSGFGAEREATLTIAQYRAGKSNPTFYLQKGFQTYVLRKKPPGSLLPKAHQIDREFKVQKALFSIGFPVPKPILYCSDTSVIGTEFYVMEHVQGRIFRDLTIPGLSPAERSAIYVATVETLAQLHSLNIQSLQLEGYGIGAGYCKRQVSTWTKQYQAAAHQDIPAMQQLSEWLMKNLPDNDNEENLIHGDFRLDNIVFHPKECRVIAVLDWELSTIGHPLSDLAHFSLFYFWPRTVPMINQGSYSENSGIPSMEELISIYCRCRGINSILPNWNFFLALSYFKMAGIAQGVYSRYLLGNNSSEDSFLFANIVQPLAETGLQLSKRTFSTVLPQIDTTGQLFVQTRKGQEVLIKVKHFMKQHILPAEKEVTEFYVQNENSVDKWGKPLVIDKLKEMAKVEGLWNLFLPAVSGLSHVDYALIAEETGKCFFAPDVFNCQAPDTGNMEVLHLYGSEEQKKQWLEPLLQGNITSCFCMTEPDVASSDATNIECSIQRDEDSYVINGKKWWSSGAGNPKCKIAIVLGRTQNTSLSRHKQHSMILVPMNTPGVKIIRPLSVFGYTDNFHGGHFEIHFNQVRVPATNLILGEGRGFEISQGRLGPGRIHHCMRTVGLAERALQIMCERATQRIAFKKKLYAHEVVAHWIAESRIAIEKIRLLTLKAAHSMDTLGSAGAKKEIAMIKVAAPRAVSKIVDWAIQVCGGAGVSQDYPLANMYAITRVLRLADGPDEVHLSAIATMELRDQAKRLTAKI

T1 sequence (P42684 whole entry): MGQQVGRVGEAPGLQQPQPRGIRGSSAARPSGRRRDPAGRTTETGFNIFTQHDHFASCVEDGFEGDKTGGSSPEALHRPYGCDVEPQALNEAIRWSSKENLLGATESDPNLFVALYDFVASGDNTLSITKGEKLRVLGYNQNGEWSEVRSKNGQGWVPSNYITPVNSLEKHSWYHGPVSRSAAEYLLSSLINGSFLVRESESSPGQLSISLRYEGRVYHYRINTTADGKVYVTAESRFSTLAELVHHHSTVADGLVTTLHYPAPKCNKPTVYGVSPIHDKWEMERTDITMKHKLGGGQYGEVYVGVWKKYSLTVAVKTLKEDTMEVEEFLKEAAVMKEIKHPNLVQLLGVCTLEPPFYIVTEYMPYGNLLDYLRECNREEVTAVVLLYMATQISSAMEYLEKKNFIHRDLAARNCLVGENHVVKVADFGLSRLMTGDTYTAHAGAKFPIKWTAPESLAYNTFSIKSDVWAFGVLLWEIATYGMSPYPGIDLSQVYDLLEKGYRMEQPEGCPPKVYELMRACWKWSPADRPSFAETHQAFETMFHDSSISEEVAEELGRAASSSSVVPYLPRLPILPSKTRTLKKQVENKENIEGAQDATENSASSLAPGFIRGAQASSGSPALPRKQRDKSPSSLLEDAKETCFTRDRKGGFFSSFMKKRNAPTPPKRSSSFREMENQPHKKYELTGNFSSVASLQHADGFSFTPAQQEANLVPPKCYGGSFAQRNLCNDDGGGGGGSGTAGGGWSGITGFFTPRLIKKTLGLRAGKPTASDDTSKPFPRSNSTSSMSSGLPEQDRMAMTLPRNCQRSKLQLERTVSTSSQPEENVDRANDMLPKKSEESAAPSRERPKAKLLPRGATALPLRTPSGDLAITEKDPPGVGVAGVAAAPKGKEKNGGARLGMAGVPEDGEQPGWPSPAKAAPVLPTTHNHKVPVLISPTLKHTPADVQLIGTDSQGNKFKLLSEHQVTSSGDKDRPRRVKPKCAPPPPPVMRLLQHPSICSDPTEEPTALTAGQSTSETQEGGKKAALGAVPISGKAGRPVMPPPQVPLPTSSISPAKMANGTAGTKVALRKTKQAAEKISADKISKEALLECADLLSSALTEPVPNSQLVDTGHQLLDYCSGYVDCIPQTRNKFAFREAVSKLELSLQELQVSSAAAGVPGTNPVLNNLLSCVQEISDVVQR

| SMILES | CATDS (ABL2) | CATDS (ACAD11) |
| --- | --- | --- |
| CCN1CCN(Cc2ccc(Nc3ncc(F)c(-c4cc(F)c5nc(C)n(C(C)C)c5c4)n3)nc2)CC1 [Abemaciclib] | 0 | 0 |
| CN(C)C/C=C/C(=O)Nc1cc2c(Nc3ccc(F)c(Cl)c3)ncnc2cc1O[C@H]1CCOC1 [Afatinib] |  | 0 |
| C#Cc1cccc(Nc2ncnc3cc(OC)c(OC4CCN(C)CC4)cc23)c1 [BI00007366] | 0 | 0 |
| CC(C)N1CC(=O)N(C)c2cnc(Nc3cccc(S(=O)(=O)CCN4CCOCC4)c3)nc21 [BI00009348] | 0 | 0 |
| CCc1cc2c(cc1N1CCC(N3CCOCC3)CC1)C(C)(C)c1[nH]c3cc(C#N)ccc3c1C2=O [Alectinib] | 0 | 0 |
| Nc1ncnc2[nH]c(-c3ccccc3)nc12 [AH5015_KCGS] | 0 | 0 |
| N#CC1(c2ccc(NC(=O)c3cccnc3NCc3ccncc3)cc2)CCCC1 [Apatinib] | 0 | 0 |
